Common to all, as to format: biochemical
The target in one test is p110δ/p85α (Homo sapiens, UniProt O00329). In words: Transcreener KINASE Assay, kinase inhibition of p110δ/p85α. The settings on record: for PI3Kδ IH % @ 1 uM: 1 uM test compound; for IC50: read-out: PI3Kδ IC50. How it is done:
(§1) PI3K kinases including p110α/p85α, p110δ/p85α and p110γ are purchased from Invitrogen, and p110β/p85α is from Millipore.
(§2) Primary screening data and IC50 values are measured using Transcreener™ KINASE Assay (Bellbrook, Catalog #3003-10K). […] It is a universal, homogenous, high throughput screening (HTS) technology using a far-red, competitive fluorescence polarization immunoassay based on the detection of ADP to monitor the activity of enzymes that catalyze group transfer reactions. Briefly, the Transcreener KINASE Assay is designed as a simple two-part, endpoint assay.
(§3) In the first step, the 25 ul kinase reaction is performed by preparing a reaction mixture containing 5 ul test compound (2% DMSO final concentration), 10 ul kinase, buffer (50 mM HEPES, 100 mM NaCl, 1 mM EGTA, 0.03% CHAPS, 3 mM MgCl2, and freshly supplemented 1 mM DTT), and 10 ul 30 uM PIP2/10 uM ATP. The plate is sealed and incubated for 80 min at room temperature. Next, 25 ul ADP detection mix is added per well. The plate is sealed again and incubated for 60 min at room temperature, and then measure fluorescence polarization by Tecan Infinite F500 Reader.
(§4) Data is analyzed and IC50s are generated using the add-in software for Microsoft Excel, Xlfit™ (version 2.0). IH %=(ADP amount under 2% DMSO-ADP amount under test compound)/ADP amount under 2% DMSO.

The next test concerns the target p110β/p85α (Homo sapiens, UniProt P42338). The experiment in a line: Transcreener KINASE Assay, kinase inhibition of p110β/p85α. The settings on record: for PI3Kβ IH % @ 1 uM: 1 uM test compound; for IC50: read-out: PI3Kβ IC50. How it is done: as §1, §2, §3, §4
The target of another test is p110γ (Homo sapiens, UniProt P48736). In words: Transcreener KINASE Assay, kinase inhibition of p110γ. The conditions noted are these: for PI3Kγ IH % @ 1 uM: 1 uM test compound; for IC50: read-out: PI3Kγ IC50. How it is done: Kinase Inhibition assays of p110α/p85α, p110β/p85α, p110δ/p85α and p110γ PI3K kinases including p110α/p85α, p110δ/p85α and p110γ are purchased from Invitrogen, and p110β/p85α is from Millipore. Primary screening data and IC50 values are measured using Transcreener™ KINASE Assay (Bellbrook, Catalog #3003-10K). […] It is a universal, homogenous, high throughput screening (HTS) technology using a far-red, competitive fluorescence polarization immunoassay based on the detection of ADP to monitor the activity of enzymes that catalyze group transfer reactions. Briefly, the Transcreener KINASE Assay is designed as a simple two-part, endpoint assay. […] The plate is sealed and incubated for 80 min at room temperature. Next, 25 ul ADP detection mix is added per well. The plate is sealed again and incubated for 60 min at room temperature, and then measure fluorescence polarization by Tecan Infinite F500 Reader. Data is analyzed and IC50s are generated using the add-in software for Microsoft Excel, Xlfit™ (version 2.0).
Sequence of p110γ (P48736 whole entry): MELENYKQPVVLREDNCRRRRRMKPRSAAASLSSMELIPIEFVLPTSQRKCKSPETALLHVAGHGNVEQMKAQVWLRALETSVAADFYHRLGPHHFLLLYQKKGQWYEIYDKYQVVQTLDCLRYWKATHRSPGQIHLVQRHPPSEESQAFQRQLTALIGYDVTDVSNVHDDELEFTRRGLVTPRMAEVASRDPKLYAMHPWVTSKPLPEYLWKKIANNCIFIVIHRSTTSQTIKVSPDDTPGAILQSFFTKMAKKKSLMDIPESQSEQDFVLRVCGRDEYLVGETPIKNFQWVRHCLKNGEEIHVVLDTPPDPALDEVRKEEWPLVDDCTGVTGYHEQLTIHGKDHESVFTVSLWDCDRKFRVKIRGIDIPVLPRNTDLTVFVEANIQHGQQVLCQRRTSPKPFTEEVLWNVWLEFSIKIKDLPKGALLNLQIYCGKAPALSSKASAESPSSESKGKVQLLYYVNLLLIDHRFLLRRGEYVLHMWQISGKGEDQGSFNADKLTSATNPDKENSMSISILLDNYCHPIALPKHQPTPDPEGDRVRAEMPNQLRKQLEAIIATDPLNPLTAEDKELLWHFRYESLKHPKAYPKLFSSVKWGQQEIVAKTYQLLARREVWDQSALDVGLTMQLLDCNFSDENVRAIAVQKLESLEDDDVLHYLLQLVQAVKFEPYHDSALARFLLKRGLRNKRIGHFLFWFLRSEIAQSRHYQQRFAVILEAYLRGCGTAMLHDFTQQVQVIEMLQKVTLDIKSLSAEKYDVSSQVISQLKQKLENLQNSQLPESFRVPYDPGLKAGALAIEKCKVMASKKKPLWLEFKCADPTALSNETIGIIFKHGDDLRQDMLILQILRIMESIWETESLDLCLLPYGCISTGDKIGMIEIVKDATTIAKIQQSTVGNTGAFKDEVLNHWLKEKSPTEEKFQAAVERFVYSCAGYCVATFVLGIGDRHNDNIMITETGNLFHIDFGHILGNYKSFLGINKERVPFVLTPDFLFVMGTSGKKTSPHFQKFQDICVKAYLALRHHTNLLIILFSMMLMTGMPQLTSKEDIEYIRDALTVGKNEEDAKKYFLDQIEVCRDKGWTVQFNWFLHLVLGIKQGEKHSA

Sequence of p110δ/p85α (O00329 whole entry): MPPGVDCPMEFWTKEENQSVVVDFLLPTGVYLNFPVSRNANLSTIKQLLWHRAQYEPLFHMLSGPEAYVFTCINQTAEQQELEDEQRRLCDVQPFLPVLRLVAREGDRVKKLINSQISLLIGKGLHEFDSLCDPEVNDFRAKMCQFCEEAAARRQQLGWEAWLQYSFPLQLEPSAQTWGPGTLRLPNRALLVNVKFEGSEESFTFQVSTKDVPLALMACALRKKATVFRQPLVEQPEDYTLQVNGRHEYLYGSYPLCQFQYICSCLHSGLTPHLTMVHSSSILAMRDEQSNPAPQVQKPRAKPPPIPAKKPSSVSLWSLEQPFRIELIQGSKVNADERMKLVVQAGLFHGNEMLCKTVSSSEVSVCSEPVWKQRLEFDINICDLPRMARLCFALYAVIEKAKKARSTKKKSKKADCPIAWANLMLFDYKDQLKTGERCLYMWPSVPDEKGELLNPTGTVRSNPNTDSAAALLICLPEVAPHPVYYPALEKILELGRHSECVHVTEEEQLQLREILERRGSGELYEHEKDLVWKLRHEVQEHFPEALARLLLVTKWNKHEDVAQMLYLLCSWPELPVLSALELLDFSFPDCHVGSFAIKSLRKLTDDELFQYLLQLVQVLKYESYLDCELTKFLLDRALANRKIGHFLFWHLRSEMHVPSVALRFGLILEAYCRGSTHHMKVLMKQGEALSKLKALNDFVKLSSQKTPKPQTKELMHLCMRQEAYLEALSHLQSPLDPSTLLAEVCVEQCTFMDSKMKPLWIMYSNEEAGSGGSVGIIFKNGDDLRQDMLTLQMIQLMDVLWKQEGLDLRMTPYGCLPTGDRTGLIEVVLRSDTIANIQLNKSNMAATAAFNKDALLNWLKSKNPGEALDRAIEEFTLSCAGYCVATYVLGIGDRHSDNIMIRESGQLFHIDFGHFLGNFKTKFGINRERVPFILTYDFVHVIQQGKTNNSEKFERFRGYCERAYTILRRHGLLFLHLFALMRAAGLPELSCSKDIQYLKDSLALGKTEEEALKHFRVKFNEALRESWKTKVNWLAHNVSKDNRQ
Sequence of p110δ/p85α (P27986 whole entry partner): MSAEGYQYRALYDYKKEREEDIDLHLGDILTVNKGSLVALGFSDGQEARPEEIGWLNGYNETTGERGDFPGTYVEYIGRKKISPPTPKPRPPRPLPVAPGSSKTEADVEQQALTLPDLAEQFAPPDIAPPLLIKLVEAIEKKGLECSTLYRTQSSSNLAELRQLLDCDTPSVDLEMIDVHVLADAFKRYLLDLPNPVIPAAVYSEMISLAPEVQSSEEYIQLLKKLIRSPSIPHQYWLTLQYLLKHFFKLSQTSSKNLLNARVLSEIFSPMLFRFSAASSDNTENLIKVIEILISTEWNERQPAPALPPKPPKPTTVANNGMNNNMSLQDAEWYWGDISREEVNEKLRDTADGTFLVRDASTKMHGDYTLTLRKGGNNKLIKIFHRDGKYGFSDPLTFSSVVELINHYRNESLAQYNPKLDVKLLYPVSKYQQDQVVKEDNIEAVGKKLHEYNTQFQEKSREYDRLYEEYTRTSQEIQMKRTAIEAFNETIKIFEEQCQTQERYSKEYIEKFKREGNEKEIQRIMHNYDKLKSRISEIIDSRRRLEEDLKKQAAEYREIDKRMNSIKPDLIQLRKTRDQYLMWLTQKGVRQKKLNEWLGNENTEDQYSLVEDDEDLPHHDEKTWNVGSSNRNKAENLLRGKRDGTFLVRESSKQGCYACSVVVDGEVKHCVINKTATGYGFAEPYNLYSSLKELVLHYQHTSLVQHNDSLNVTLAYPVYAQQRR
Sequence of p110β/p85α (P42338 whole entry): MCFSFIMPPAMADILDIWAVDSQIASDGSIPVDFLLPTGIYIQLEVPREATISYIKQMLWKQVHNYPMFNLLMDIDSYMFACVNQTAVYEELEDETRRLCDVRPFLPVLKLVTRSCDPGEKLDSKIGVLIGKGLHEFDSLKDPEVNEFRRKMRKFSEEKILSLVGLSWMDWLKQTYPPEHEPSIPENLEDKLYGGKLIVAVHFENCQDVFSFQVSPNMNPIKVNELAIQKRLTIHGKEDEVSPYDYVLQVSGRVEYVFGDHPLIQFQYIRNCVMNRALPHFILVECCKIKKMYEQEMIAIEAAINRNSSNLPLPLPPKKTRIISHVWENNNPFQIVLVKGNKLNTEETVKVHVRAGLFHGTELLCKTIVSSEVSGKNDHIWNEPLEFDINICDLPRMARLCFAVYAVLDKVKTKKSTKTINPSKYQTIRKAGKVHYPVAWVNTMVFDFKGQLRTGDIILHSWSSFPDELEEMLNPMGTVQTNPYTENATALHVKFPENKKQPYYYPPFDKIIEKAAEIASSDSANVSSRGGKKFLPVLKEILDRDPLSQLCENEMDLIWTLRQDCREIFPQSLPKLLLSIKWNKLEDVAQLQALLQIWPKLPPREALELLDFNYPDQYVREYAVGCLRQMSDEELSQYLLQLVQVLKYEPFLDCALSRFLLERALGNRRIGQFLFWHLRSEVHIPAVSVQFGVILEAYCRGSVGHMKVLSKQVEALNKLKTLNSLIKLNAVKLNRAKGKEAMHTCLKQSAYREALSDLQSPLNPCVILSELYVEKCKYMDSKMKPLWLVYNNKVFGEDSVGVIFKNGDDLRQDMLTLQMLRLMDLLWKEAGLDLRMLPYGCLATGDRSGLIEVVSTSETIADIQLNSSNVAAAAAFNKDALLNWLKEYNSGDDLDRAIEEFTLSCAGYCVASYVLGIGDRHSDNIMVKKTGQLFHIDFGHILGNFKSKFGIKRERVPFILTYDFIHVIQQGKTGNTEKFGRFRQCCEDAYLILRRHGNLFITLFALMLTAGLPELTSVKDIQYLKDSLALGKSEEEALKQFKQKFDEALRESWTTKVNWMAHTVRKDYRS
Sequence of p110β/p85α (P27986 2-724 partner): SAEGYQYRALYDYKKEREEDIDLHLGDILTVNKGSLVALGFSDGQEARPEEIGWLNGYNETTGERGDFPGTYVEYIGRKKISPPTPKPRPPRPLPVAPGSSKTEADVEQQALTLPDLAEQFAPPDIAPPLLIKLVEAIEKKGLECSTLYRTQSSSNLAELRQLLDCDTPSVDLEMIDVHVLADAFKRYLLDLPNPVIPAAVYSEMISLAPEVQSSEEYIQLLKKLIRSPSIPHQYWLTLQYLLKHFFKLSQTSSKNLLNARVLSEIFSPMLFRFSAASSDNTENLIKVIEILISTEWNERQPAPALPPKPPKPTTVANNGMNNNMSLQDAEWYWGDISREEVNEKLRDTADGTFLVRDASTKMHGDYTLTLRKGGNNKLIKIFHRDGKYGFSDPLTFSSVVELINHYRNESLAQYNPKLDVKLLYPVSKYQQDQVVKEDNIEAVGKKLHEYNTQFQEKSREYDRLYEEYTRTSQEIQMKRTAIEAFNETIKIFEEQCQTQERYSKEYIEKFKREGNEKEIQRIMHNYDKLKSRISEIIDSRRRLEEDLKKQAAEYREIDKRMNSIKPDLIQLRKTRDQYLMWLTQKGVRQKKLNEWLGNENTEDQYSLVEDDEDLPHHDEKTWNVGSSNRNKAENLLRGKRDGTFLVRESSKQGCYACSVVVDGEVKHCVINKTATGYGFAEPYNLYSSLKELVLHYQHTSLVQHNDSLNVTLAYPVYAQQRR

What is called IC50 is the midpoint of a concentration-inhibition curve. For the compound `C[C@H](Nc1nc(N)ncc1C#N)c1cc2ncc(Cl)n2c(=O)n1-c1ccccc1` (single isomer, unassigned) [Compound 385], on p110δ/p85α, the “PI3Kδ IH % @ 1 uM” value was above 100% and the IC50 was 4 nM. In addition, at p110β/p85α, the “PI3Kβ IH % @ 1 uM” value turned out to be 83.3% and the IC50 is 75 nM. Moreover, on p110γ, the “PI3Kγ IH % @ 1 uM” value is on record as 95.9% and the IC50 turned out to be 10 nM.

Regarding `C[S@+]([O-])c1c[nH]c2ncnc(N3CCC[C@H]3c3nn4ccc(Cl)c4c(=O)n3-c3cccc(F)c3)c12` (single isomer, unassigned) [Compound 386], on p110δ/p85α, the “PI3Kδ IH % @ 1 uM” value is reported as above 100% and the IC50 amounted to 3 nM. In addition, at p110β/p85α, the “PI3Kβ IH % @ 1 uM” value was 76.8% and the IC50 came out at 322 nM. On p110γ, the “PI3Kγ IH % @ 1 uM” value was 95.0% and the IC50 came to 21 nM.

`C[S+]([O-])c1c[nH]c2ncnc(N3CCC[C@H]3c3nn4ccc(Cl)c4c(=O)n3-c3cccc(F)c3)c12` (single isomer, unassigned) [Compound 387]: at p110δ/p85α, the “PI3Kδ IH % @ 1 uM” value was determined as 98.2% and the IC50 stood at 7 nM. Further, the “PI3Kβ IH % @ 1 uM” value on p110β/p85α came out at 39.6%. Besides, on p110γ, the “PI3Kγ IH % @ 1 uM” value was above 100% and the IC50 turned out to be 9 nM.

For `C[S+]([O-])c1c[nH]c2ncnc(N3CCC[C@H]3c3nn4ccc(Cl)c4c(=O)n3-c3ccccn3)c12` (single isomer, unassigned) [Compound 389], at p110δ/p85α, the “PI3Kδ IH % @ 1 uM” value turned out to be 95.4% and the IC50 was 7 nM. Further, the “PI3Kβ IH % @ 1 uM” value on p110β/p85α is recorded as 32.7%. In addition, on p110γ, the “PI3Kγ IH % @ 1 uM” value was 87.9% and the IC50 turned out to be 46 nM.

Turning to `CC(Nc1nc(N)nc2c1C(=O)CCN2)c1cn2ccc(F)c2c(=O)n1-c1ccccc1` (single isomer, unassigned) [Compound 407], on p110δ/p85α, the “PI3Kδ IH % @ 1 uM” value stood at 94.9%. The “PI3Kβ IH % @ 1 uM” value at p110β/p85α is reported as above 100%. In addition, the “PI3Kγ IH % @ 1 uM” value on p110γ is listed as above 100%.

Take `CC(Nc1ncnc2[nH]cnc12)c1cn2ccc(Cl)c2c(=O)n1-c1ccccc1` (stereo not shown) [Compound 87]: at p110β/p85α, the “PI3Kβ IH % @ 1 uM” value was found to be 90.8% and the IC50 came out at 49 nM. Further, at p110γ, the “PI3Kγ IH % @ 1 uM” value is above 100% and the IC50 was 8 nM.

As for `Nc1ncc(C(=O)C(F)(F)F)c(N2CC[C@H]2c2nn3ccc(Cl)c3c(=O)n2-c2ccccc2)n1` [Compound 325], on p110δ/p85α, the IC50 came to 524 nM.

On to `Nc1nc(N2CC[C@H]2c2nn3ccc(Cl)c3c(=O)n2-c2ccccc2)c2cccn2n1` [Compound 329, (S)-2-(1-(2-aminopyrrolo[2,1-f][1,2,4]triazin-4-yl)azetidin-2-yl)-5-chloro-3-phenyl-pyrrolo[2,1-f][1,2,4]triazin-4(3H)-one], for which, at p110δ/p85α, the “PI3Kδ IH % @ 1 uM” value is 50.3%. Moreover, on p110γ, the “PI3Kγ IH % @ 1 uM” value was found to be 91.6% and the IC50 is 227 nM.

Turning to `N#Cc1cnc(N)nc1N1CCC1c1nn2ccc(Cl)c2c(=O)n1CC1CC1` (stereo not shown) [Compound 373], at p110β/p85α, the “PI3Kβ IH % @ 1 uM” value turned out to be 37.4%.

For the compound `C[C@H]1CN(c2ncnc(N)c2C#N)C1c1nn2ccc(Cl)c2c(=O)n1-c1ccccc1` (stereo partly shown) [Compound 494], the “PI3Kβ IH % @ 1 uM” value on p110β/p85α worked out at 55.70%. Besides, the “PI3Kγ IH % @ 1 uM” value at p110γ worked out at 93.5%.

Take `CC(=O)c1cnc(N)nc1N1CC[C@H]1c1nn2ccc(Cl)c2c(=O)n1-c1cc(F)cc(F)c1` [Compound 495]: on p110δ/p85α, the “PI3Kδ IH % @ 1 uM” value is listed as 99.5%. For the same compound, on p110γ, the “PI3Kγ IH % @ 1 uM” value is above 100%.

Take `CC(=O)c1cnc(N)nc1N1CC[C@H]1c1nn2ccc(C#N)c2c(=O)n1-c1ccccc1` [Compound 498]: at p110δ/p85α, the “PI3Kδ IH % @ 1 uM” value was above 100% and the IC50 is 21 nM. In addition, on p110γ, the “PI3Kγ IH % @ 1 uM” value is on record as above 100% and the IC50 worked out at 13 nM.

For the compound `CC(=O)c1c(N)ncnc1N1C[C@H](C)[C@H]1c1nn2ccc(Cl)c2c(=O)n1-c1ccccc1` [Compound 509], the “PI3Kδ IH % @ 1 uM” value on p110δ/p85α is given as above 100%. The “PI3Kγ IH % @ 1 uM” value on p110γ was above 100%.

For `CC(=O)c1cnc(N)nc1N1C[C@H](C)[C@H]1c1nn2ccc(Cl)c2c(=O)n1-c1cc(F)cc(F)c1` [Compound 518], the “PI3Kδ IH % @ 1 uM” value at p110δ/p85α is listed as above 100%. For the same compound, the “PI3Kγ IH % @ 1 uM” value on p110γ is given as above 100%.

These data come from patent publication US20150307520A1, “NOVEL HETEROARYL AND HETEROCYCLE COMPOUNDS, COMPOSITIONS AND METHODS THEREOF” (HUTCHISON MEDIPHARMA LIMITED, priority 2012, published 2015).
